“Also recorded” adds a separate entry of the source.
Legend:
[1] = tested on: HeLa-Luc-Cas9 cells; test: sgRNA delivery to HeLa-Luc-Cas9 cells (luciferase editing, ONE-Glo+Tox); type: cell-based
Experimental: sgRNA delivery to HeLa-Luc-Cas9 cells: Select ZALs were evaluated in the delivery of single guide RNA (sgRNA) to HeLa-Luc-Cas9 cells. In a white opaque 96-well plate tissue culture plate, HeLa-Luc-Cas9 cells were seeded at a density of 5×10^3 cells per well in 100 μL growth medium (DMEM without phenol red, 5% FBS), and allowed to attach overnight and then supplemented with an additional 100 μL DMEM. ZALs-sgRNA nanoparticles were formulated using the in vitro nanoparticle formulation protocol at the indicated lipid composition and weight ratio (maintaining 50:38.5 ZAL:cholesterol mole ratio, tuningPEG-lipid additive from 5% to 0.5%, and tuning weight ratio from 20:1 ZAL:sgRNA to 5:1 ZAL:sgRNA). Luciferase deletion was evaluated using a single guide RNA designed against luciferase using the CRISPR.mit.edu algorithm, while non-targeting control sgRNA (sgScr) was used as a negative control. The nanoparticles were added to the cells at a dose of 50 ng sgRNA per well and incubated with the cells for 24 h or 48 h. RNAiMax (Invitrogen) formulated according to the manufacturer's protocol with sgLuc or sgScr was used as a positive control. After 24 h or 48 h, the cell viability and luciferase expression were evaluated with the ONE-Glo+Tox Assay cell viability and luciferase assay (Promega).
Select ZALs were evaluated in the delivery of single guide RNA (sgRNA) to HeLa-Luc-Cas9 cells. In a white opaque 96-well plate tissue culture plate, HeLa-Luc-Cas9 cells were seeded at a density of 5×10^3 cells per well in 100 μL growth medium (DMEM without phenol red, 5% FBS), and allowed to attach overnight and then supplemented with an additional 100 μL DMEM. ZNPs encapsulating sgRNA were formulated using the in vitro nanoparticle formulation protocol at the indicated lipid composition and weight ratio (maintaining 50:38.5 (ZAL:cholesterol mole ratio), tuning PEG-lipid additive from 5% to 0.5%, and tuning weight ratio from 20:1 ZAL:sgRNA to 5:1 ZAL:sgRNA). Non-targeting control sgRNA (sgCtrl) was used as a negative control. The nanoparticles were added to the cells at the appropriate dose of sgRNA and incubated with the cells for 48 h. The cell viability and luciferase expression were evaluated with the ONE-Glo+Tox Assay (Promega), normalized to untreated cells (N=4+/−standard deviation).

[2] = tested on: HeLa-Luc-Cas9 cells; test: Kinetic assay of sgRNA and siRNA delivery (luciferase expression over time); type: cell-based
Experimental: The kinetics of luciferase expression after silencing/editing by siRNA and sgRNA were determined in HeLa-Luc-Cas9 cells. For time points <48 h, ZNPs encapsulating sgRNA or siRNA were delivered to HeLa-Luc-Cas9 cells in 96-well plates at a density of 5K cells per well. After 0.5, 1, 2, 4, 11, 20, 30 and 44 h time point, the cell viability and luciferase expression were determined by the One-Glow+Tox assay. For longer time points, cells were treated in 6-well plates. Beginning at the 2 day time point, cells were aspirated, washed with 1×PBS, trypsinized in 200 μL trypsin and re-suspended in 1800 μL medium. 1 mL of each cell suspension was added to a fresh 6-well plate containing 1 mL DMEM (2 mL total) and returned to the incubator. Of the remaining cell suspension, 50 μL was transferred to a 96-well white-opaque plate (10 wells per sample). Cell viability was determined using the Cell-Titer Glo assay normalized to untreated cells, while relative luciferase expression was determined using the One-Glo assay and normalized against control (siCtrl or sgCtrl). Data was plotted as an average of 5 measurements+/−standard deviation.

[3] = tested on: Lox-Stop-Lox tdTomato (tdTO) cassette; test: In vivo delivery of Cas9 mRNA and sgLoxP (tdTomato activation); parameters: species or system mice; conditions: 5 mg/kg
Experimental: ZA3-Ep10 ZNPs encapsulating Cas9 mRNA and sgLoxp were prepared according to the in vivo nanoparticle formulation protocol using the Nanoassemblr microfluidic mixing device. The lipid mix contained 50 ZA3-Ep10:38.5 cholesterol:0.5 PEG-lipid molar ratios, and the particles were formulated at a 7.5:1 ZAL:total RNA weight ratio. The Cas9 mRNA:sgLoxP weight ratio was maintained at 4:1. […] After which they were sacrificed and the major organs imaged using the IVIS Lumina system for fluorescence expression (dsRed filter set) compared to an uninjected Rosa 26-LSL-tdTomato mouse. A liver specific Cre recombinase adeno-associated virus (Cre-AAV8) injected intravenously via tail vein injection (4 days) was used as a positive control.
Tissue were fixed in 4% paraformaldehyde (PFA) at RT for 2 hours, then changed in 30% sucrose (in PBS) at 4° C. overnight. Then the tissues were embedded in Cryo-gel (Leica Biosystems), and frozen in dry ice. The blocks were sectioned using Cryostat machine (Leica Biosystems) at 8 μm thickness. […]
For detection of Tomato positive populations, primary hepatocytes (2×10^6/mL) were isolated and stained with DAPI (Roche, 2 μg/mL) for dead cell exclusion. Cells were analyzed with BD FACSAria Fusion machine (BD Biosciences). Tomato positive cells were counted in DAPI negative (live cell) populations.

[4] = tested on: HeLa-Luc-Cas9 cells; IGROV1 cells; test: Delivery efficacy of ZA3-Ep10 versus cationic structural analogue (siLuc, sgLuc, Luc mRNA); type: cell-based; conditions: siRNA, sgRNA and mRNA cargos; 7.5:1 weight ratio
Experimental: The ZNP or LNP formulation was fixed at 7.5:1 weight ratio ZAL or Cationic analogue to RNA. The lipid mixture for the NPs was 50:38.5:0.5 ZAL or cationic analogue: cholesterol: PEG-lipid, while for the A3-Ep14 NPs the zwitterionic phospholipid was titrated from 0 to 50% in the lipid mix. The nanoparticles were formulated by manual mixing using the in vitro formulation protocol. RNA binding was determined by the Ribogreen assay (N=3+/−standard deviation), while nanoparticle size was determined by dynamic light scattering (N=3+/−standard deviation). Luciferase silencing or editing of siLuc and sgLuc NPs was assayed in HeLa-Luc-Cas9 cells (7.35 nM sgRNA, 17.9 nM siRNA), while luciferase expression by Luc mRNA NPs was evaluated in IGROV1 cells (0.77 nM mRNA). Cells were assays after 40 h incubation time by the One-Glo+Tox assay and plotted with viability (dots) and luciferase expression (bars) as mean+/−standard deviation (N=4).

[5] = PEG 2%, 1%, 0.5%, ZAL:sgRNA 20:1, 10:1, 7.5:1, 5:1, 7.4 nM, 48 h

With `CCCCCCCCC(O)CN(CCC(=O)NCC[N+](C)(C)CCCS(=O)(=O)[O-])CCN(CCN(CC(O)CCCCCCCC)CC(O)CCCCCCCC)CCN(CC(O)CCCCCCCC)CC(O)CCCCCCCC` (centres unmarked) [ZA3-Ep10] as the compound, how does the “formulation with the best luciferase editing” value [1, 5] read?
Its value is 7.5:1 weight ratio and 0.5% PEG.

What about the “sgLuc delivery by formulations with tuned PEG content and weight ratio” value [1, 5] of the same compound?
The value was “potent”.

And the “sgRNA (sgLuc) delivery, rank among lead ZALs” value ([1]; lead ZALs from the siRNA screen, HeLa-Luc-Cas9 cells, 48 h)?
Its value is “most highly potent; also recorded: efficacious”.

And the “luciferase expression versus sgRNA dose” value ([1]; sgLuc ZNPs, HeLa-Luc-Cas9 cells)?
Its value is “dose-dependent decrease”.

And the luciferase silencing ([1]; sgRNA at 14.7 nM and 7.4 nM, 48 h, ZNPs 50:38.5:1 ZAL:cholesterol:PEG-lipid, 20:1 ZAL:sgRNA weight ratio)?
Its luciferase silencing is > 95%.

What about the “decrease of luciferase expression” value ([2]; sgLuc, 20 h) of the same compound?
Its value is 40%.

What about the “decrease of luciferase expression” value ([2]; sgLuc, after 2 days) of the same compound?
The value was 95%.

And the remaining luciferase expression ([2]; sgLuc, persisted throughout the assay (9 days))?
Its remaining luciferase expression is 5%.

And the “time luciferase remained low” value ([2]; siLuc)?
Its value is “about 3 days”.

And the “time until protein expression reached baseline level” value ([2]; siLuc, after transfection)?
Its value is 6 days.

And the luciferase silenced ([2]; siLuc, by 20 h)?
Its luciferase silenced is 92%.

And the “decrease of luciferase expression” value ([2]; siLuc, within the first 4 h)?
The value was 40%.

And the “fluorescent signal 2 months after treatment” value [3]?
Its value is “significant fluorescent signal in the liver and kidneys”.

What about the “efficacy compared with cationic analogue” value [4] of the same compound?
Its value is “outperformed the cationic analogue supplemented with phospholipid”.

Source: patent US11685710B2, “Cationic sulfonamide amino lipids and amphiphilic zwitterionic amino lipids” (The Board of Regents of the University of Texas System, priority 2016, dated 2023)
